In a compilation of properties of binary mixtures (doi:10.1021/acs.jced.1c00387):

Assay: xn = mol fraction of the nth substance listed
Details: 81.5 kPa

CC(C)(N)CO + CC(=O)[O-].CC[n+]1ccn(C)c1
viscosity [mPa·s]
Details	293.15 K	303.15 K	313.15 K	323.15 K	333.15 K	343.15 K	353.15 K
x1 = 0.2	198	104	60.3	38.3	26	18.6	13.5
x1 = 0.4	136	74.9	45.5	29.9	20.9	–	11.7
x1 = 0.6	94.7	–	33.2	–	15.7	–	8.8
x1 = 0.8	–	–	29.3	18.6	–	–	6.8
x1 = 1	–	–	54.4	25.5	14.6	9.2	5.9

CN(CCO)CCO + CC(=O)[O-].CC[n+]1ccn(C)c1
x1 = 1
Details	viscosity [mPa·s]
303.15 K	58
323.15 K	22.1
333.15 K	14.9
343.15 K	10.4
353.15 K	7.4

OCCNCCO + CC(=O)[O-].CC[n+]1ccn(C)c1
viscosity [mPa·s]
Details	293.15 K	303.15 K	313.15 K	323.15 K	333.15 K	343.15 K	353.15 K
x1 = 0.2	202	–	–	41.2	28.3	20.4	15.3
x1 = 0.4	197	108	65.2	42.4	–	21.2	15.9
x1 = 0.6	214	–	68.6	43.9	29.8	21.3	–
x1 = 0.8	–	175	95.6	56.8	36.1	24.4	–
x1 = 1	–	–	191	102	58.2	35.5	23

CC(=O)[O-].CC[n+]1ccn(C)c1 + CC(C)(N)CO
x2 = 0
Details	viscosity [mPa·s]
293.15 K	204
303.15 K	106
313.15 K	61.6
323.15 K	39.4
333.15 K	26.8
343.15 K	19.3
353.15 K	14.6

CC(=O)[O-].CC[n+]1ccn(C)c1 + CN(CCO)CCO
viscosity [mPa·s]
Details	293.15 K	303.15 K	313.15 K	323.15 K	333.15 K	343.15 K	353.15 K
x2 = 0	204	106	61.6	39.4	–	19.3	–
x2 = 0.2	193	105	63.5	41.3	28.6	20.7	15.7
x2 = 0.4	–	96	59.8	–	28.1	20.6	15.6
x2 = 0.6	128	76.2	48.8	33.2	23.6	17.5	13.4
x2 = 0.8	109	61.5	39.1	26.4	18.7	13.7	–

CC(=O)[O-].CC[n+]1ccn(C)c1 + OCCNCCO
x2 = 0
Details	viscosity [mPa·s]
323.15 K	39.4
343.15 K	19.3
353.15 K	14.6
